Test results: ChEMBL document CHEMBL1134043, “Allosteric inhibition of fructose-1,6-bisphosphatase by anilinoquinazolines” (Bioorg Med Chem Lett, 2001)

What was measured:
[1] = biological target: T1, Fructose-1,6-bisphosphatase 1 (Homo sapiens, UniProt P09467); experiment: Concentration required to inhibit the human liver recombinant fructose-1,6-bisphosphatase.
T1 sequence (P09467 whole entry): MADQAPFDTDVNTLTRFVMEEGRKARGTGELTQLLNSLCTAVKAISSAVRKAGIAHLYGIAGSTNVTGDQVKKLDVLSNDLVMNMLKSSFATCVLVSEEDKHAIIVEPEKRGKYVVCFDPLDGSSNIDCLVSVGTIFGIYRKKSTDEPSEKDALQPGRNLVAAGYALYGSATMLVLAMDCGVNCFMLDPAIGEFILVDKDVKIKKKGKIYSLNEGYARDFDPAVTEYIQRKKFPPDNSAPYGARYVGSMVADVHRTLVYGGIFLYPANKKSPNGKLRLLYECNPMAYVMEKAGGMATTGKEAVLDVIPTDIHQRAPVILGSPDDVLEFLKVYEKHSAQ

Oryctolagus cuniculus = organism: Oryctolagus cuniculus; experiment: Compound was evaluated for its concentration required to inhibit the rabbit liver F16BPase; assay type: functional
[2] = biological target: T2, Fructose-1,6-bisphosphatase 1 (Sus scrofa, UniProt P00636); experiment: Compound was evaluated for its concentration required to inhibit the porcine kidney F16BPase
T2 sequence (P00636 whole entry): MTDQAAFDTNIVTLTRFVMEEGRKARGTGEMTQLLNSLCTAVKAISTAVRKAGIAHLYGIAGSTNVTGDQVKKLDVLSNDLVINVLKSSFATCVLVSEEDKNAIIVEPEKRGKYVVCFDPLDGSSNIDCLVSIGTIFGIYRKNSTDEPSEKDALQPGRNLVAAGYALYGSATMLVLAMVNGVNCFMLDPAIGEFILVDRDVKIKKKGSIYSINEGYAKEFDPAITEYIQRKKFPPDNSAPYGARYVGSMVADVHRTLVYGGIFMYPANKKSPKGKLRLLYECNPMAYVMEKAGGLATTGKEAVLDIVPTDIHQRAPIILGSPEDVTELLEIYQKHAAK

[3] = biological target: T3, Fructose-1,6-bisphosphatase 1 (Rattus norvegicus, UniProt P19112); experiment: Compound was evaluated for its concentration required to inhibit the rat liver F16BPase
T3 sequence (P19112 whole entry): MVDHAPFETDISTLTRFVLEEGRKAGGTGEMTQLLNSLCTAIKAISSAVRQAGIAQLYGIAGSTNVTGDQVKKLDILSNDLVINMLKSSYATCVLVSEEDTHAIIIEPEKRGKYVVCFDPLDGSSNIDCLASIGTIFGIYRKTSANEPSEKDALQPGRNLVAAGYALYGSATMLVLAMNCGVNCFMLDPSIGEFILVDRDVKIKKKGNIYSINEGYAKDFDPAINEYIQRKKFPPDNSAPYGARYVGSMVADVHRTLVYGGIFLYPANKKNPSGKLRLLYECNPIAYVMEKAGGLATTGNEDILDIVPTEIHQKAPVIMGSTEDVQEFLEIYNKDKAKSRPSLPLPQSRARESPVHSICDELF

Nc1cc2c(Nc3cccc(Br)c3)ncnc2cc1Cl
IC50 [1]: 11.9 µM

COc1cc2ncnc(Nc3cccc(Br)c3)c2cc1[N+](=O)[O-]
IC50 [1]: > 10 µM

CCOc1cc2nc(Cc3ccccc3)nc(Nc3cccc(Br)c3)c2cc1OCC
IC50 [1]: > 10 µM

Brc1cccc(Nc2ncnc3cc4ccccc4cc23)c1
IC50 [1]: 7.5 µM

O=C(O)c1ccc2c(Nc3cccc(Br)c3)ncnc2c1
IC50 [1]: > 10 µM

COc1cc2ncnc(Nc3ccc(F)c(Cl)c3)c2cc1OC
IC50 [1]: 0.29 µM | IC50 (Oryctolagus cuniculus): > 10 µM | IC50 [2]: 0.34 µM | IC50 [3]: > 10 µM

C#Cc1cccc(Nc2ncnc3cc(OCC)c(OCC)cc23)c1
IC50 [1]: 2.4 µM

CCOc1cc2nc(CS(C)(=O)=O)nc(Nc3cccc(Br)c3)c2cc1OCC
IC50 [1]: > 10 µM

COc1cc2ncnc(Nc3cccc(Cl)c3)c2cc1OC [TYRPHOSTIN AG-1478]
IC50 [1]: 1.3 µM | IC50 (Oryctolagus cuniculus): > 10 µM | IC50 [2]: > 10 µM | IC50 [3]: > 10 µM

Brc1cccc(Nc2ncnc3cc4nc[nH]c4cc23)c1
IC50 [1]: 4 µM

CCOc1cc2ncnc(Nc3cccc(F)c3)c2cc1OCC
IC50 [1]: 9.2 µM

COCCOc1cc2ncnc(Nc3cccc(Br)c3)c2cc1OCCOC
IC50 [1]: > 10 µM

COCCOc1ccc2ncnc(Nc3cccc(Br)c3)c2c1
IC50 [1]: 2.9 µM

CCOc1cc2nc(CN3CCOCC3)nc(Nc3cccc(Br)c3)c2cc1OCC
IC50 [1]: > 10 µM

CCCCOc1ccc2ncnc(Nc3cccc(Br)c3)c2c1
IC50 [1]: > 10 µM

CCOc1cc2ncnc(Nc3cccc(Br)c3)c2cc1OCC
IC50 [1]: 1.7 µM | IC50 (Oryctolagus cuniculus): > 10 µM | IC50 [2]: > 10 µM | IC50 [3]: > 10 µM

COc1cc2ncnc(Nc3cccc(Br)c3)c2cc1OC
IC50 (Oryctolagus cuniculus): > 10 µM | IC50 [2]: > 10 µM | IC50 [3]: > 10 µM

CCOc1cc2ncnc(Nc3ccc(C)c(Cl)c3)c2cc1OCC
IC50 [1]: > 10 µM

CCOc1cc2ncnc(Nc3ccc(Cl)c(Cl)c3)c2cc1OCC
IC50 [1]: > 10 µM

CCOc1cc2nc(-c3ccccc3)nc(Nc3cccc(Br)c3)c2cc1OCC
IC50 [1]: > 10 µM

CCOc1cc2ncnc(Nc3cccc(I)c3)c2cc1OCC
IC50 [1]: 2.1 µM

CC(C)Oc1ccc2ncnc(Nc3cccc(Br)c3)c2c1
IC50 [1]: > 10 µM

CCOc1cc2nc(CC(C)C)nc(Nc3cccc(Br)c3)c2cc1OCC
IC50 [1]: > 10 µM

CCOc1cc2ncnc(Nc3ccccc3)c2cc1OCC
IC50 [1]: > 10 µM

O=[N+]([O-])c1cc2c(Nc3cccc(Br)c3)ncnc2cc1Cl
IC50 [1]: > 10 µM

CCOc1cc2ncnc(Nc3cccc(C#N)c3)c2cc1OCC
IC50 [1]: > 10 µM

CCOc1cc2ncnc(Nc3ccc(F)c(Cl)c3)c2cc1OCC
IC50 [1]: 0.53 µM | IC50 (Oryctolagus cuniculus): > 10 µM | IC50 [2]: 3.1 µM | IC50 [3]: > 10 µM

COc1cc2nc(C)nc(Nc3cccc(Br)c3)c2cc1OC
IC50 [1]: 4.5 µM

C#Cc1cc(Nc2ncnc3cc(OC)c(OC)cc23)ccc1F
IC50 [1]: 0.25 µM | IC50 (Oryctolagus cuniculus): > 10 µM | IC50 [2]: 0.77 µM | IC50 [3]: > 10 µM

CCOc1cc2ncnc(Nc3cccc(Cl)c3)c2cc1OCC
IC50 [1]: 1.6 µM | IC50 (Oryctolagus cuniculus): > 10 µM | IC50 [2]: 3.9 µM | IC50 [3]: > 10 µM

CCOc1cc2nc(CN(CC)CC)nc(Nc3cccc(Br)c3)c2cc1OCC
IC50 [1]: > 10 µM

CCOc1cc2nc(CCl)nc(Nc3cccc(Br)c3)c2cc1OCC
IC50 [1]: > 10 µM

CCN(CC)c1nc(Nc2cccc(Br)c2)c2cc(OC)c(OC)cc2n1
IC50 [1]: > 10 µM

CCOc1cc2ncnc(Nc3cccc(Br)c3)c2cc1[N+](=O)[O-]
IC50 [1]: 3.6 µM

C#Cc1cccc(Nc2ncnc3cc(OC)c(OC)cc23)c1
IC50 [1]: 0.9 µM | IC50 (Oryctolagus cuniculus): > 10 µM | IC50 [2]: 1.6 µM | IC50 [3]: > 10 µM

COCCOc1cc2c(Nc3cccc(Br)c3)ncnc2cc1OC
IC50 [1]: 5.5 µM
